Laboratory results as given in PMC10287695, “Non-covalent inhibitors of thioredoxin glutathione reductase with schistosomicidal activity in vivo” (Nature Communications, 2023).
Values joined by “and” are separate entries in the source; they are usually repeats but may differ in a detail not shown here. Equal values may be shown once.

Legend:
S. mansoni adult worms = test: GSH/GSSG ratio in ex vivo adult worms; type: cell-based; settings: 1 hr; second data set (r136-144), baseline 63.5617, DMSO 63.4928
Experimental: We assessed GSH/GSSG levels experimentally by treating S. mansoni adult worms with 50 µM of compounds, or respective controls 5 µM Auranofin, 50 µM PZQ or 50 µM MZM and 0.01% DMSO for 3 h. Worm homogenate was prepared by washing three times with PBS to remove residual compounds and ten volumes of ice cold 5% sulfosalicylic acid was added. Worms were manually homogenized on ice using VWR Pellet Mixer Adaptor. The worm suspension was centrifuged at 14000 × g, 4 °C for 10 min and the acid supernatants transferred. An equal volume of ice-cold neutralization buffer (500 mM HEPES, pH 8.0) was added to the acid supernatants.
GSH/GSSG assay was performed by diluting the acid supernatant (5-fold) with ice-cold dilution buffer (250 mM HEPES, pH 7.5). Using white opaque luminescence plate on ice, 25 µl of the diluted worm acid supernatant was added each well in triplicates. Total glutathione lysis reagent and GSSG lysis reagent, which contains alkylating agent N-ethylmaleimide (25 mM) were prepared following manufactures protocol and added to respective wells along with blank for background. Total glutathione lysis reagent or oxidized glutathione lysis reagent (25 µl) was added to respective wells containing worm acid supernatants and the plate was shaken for 5 min. Luciferin generation reagent (LGR) (50 µl) was added to all wells, briefly shaken and incubated at room temperature for 30 min. Luciferin detection reagent (LDR) (100 µl) was added to all wells, briefly shaken and incubated for 15 min at room temperature and the luminescence measured using microplate imager (BioTek Cytation3). GSH/GSSH ratio for DMSO control and compounds were calculated using (Net DMSO total glutathione RFU) – (Net DMSO GSSG RFU)/ (Net DMSO GSSG RFU)/2 and (Net inhibitor total glutathione RFU) – (Net inhibitor GSSG RFU)/ (Net inhibitor GSSG RFU)/2 respectively.

BmTrxR = BmTrxR (Brugia malayi, UniProt A0A1I9G0T9); test: B. malayi TrxR enzyme inhibition; type: biochemical
Sequence of BmTrxR (A0A1I9G0T9 entry or part of it, added parts left off): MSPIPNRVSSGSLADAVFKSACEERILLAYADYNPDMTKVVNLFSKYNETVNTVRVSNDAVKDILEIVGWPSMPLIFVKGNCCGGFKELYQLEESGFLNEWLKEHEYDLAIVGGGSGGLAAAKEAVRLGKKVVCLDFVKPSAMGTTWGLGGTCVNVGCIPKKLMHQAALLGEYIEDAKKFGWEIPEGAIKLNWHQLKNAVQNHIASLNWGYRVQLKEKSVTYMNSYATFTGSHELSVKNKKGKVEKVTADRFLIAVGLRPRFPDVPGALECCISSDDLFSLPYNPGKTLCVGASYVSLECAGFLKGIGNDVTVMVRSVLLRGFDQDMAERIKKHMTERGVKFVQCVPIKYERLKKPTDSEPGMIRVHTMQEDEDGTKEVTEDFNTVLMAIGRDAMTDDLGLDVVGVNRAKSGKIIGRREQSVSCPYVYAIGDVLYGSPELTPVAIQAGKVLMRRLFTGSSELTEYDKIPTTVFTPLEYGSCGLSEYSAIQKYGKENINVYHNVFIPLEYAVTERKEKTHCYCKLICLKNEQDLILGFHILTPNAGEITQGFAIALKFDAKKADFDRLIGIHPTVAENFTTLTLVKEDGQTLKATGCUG
Experimental: Recombinant TGR, human TrxR1, B. malayi (Bm)TrxR and human GR proteins were expressed and purified as described[20],[69],[79]. The codon optimized sequence for P. falciparum (PfTrxR, https://www.ncbi.nlm.nih.gov/protein/CAA60574.1/) with an N-terminal 6-His tag was synthesized and inserted into pET15b (GenScript) and expressed in BL21 (DE3) cells and purified as described for human GR[20]. […] The reaction was started with addition of an equal volume of DTNB (6 mM) and NADPH (100 µM) and the increase in A412 during the first 3 min was recorded. […] Activity was initiated with the addition of 1 mM GSSG and 100 μM NADPH and initial rates of NADPH oxidation were monitored at 340 nm. The reactions were done in triplicate. The IC50 was calculated in GraphPad Prism.

Human GR = target: T1, Human GR (Homo sapiens, UniProt P00390); test: Human GR enzyme inhibition (GSSG reduction, NADPH oxidation); type: biochemical; settings: 66.7 µM
T1 construct: made in house
T1 sequence (P00390 44-522): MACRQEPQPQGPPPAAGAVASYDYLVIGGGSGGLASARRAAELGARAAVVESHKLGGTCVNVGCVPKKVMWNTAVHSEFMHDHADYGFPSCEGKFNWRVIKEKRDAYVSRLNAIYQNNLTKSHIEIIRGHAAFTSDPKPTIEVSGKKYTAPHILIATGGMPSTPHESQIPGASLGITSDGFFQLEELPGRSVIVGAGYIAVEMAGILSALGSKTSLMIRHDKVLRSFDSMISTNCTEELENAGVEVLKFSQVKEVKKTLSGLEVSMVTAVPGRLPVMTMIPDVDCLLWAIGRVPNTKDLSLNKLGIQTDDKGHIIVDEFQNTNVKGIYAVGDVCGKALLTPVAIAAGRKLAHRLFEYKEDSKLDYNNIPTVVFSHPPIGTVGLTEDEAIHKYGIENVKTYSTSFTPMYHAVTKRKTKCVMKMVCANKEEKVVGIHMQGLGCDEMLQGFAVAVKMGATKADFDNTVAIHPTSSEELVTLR
Experimental: Recombinant TGR, human TrxR1, B. malayi (Bm)TrxR and human GR proteins were expressed and purified as described[20],[69],[79]. The codon optimized sequence for P. falciparum (PfTrxR, https://www.ncbi.nlm.nih.gov/protein/CAA60574.1/) with an N-terminal 6-His tag was synthesized and inserted into pET15b (GenScript) and expressed in BL21 (DE3) cells and purified as described for human GR[20]. TGR and TrxR enzyme inhibition assays were performed in triplicate at 25 °C as described[20] in 0.1 M potassium phosphate (pH 7.4), 10 mM EDTA, 100 µM NADPH and 0.01% Tween-20. TGR, human TrxR1 and BmTrxR (all at 4 nM) and PfTrxR (50 nM) were preincubated with the compounds for 15 min. The reaction was started with addition of an equal volume of DTNB (6 mM) and NADPH (100 µM) and the increase in A412 during the first 3 min was recorded. […] […] Activity was initiated with the addition of 1 mM GSSG and 100 μM NADPH and initial rates of NADPH oxidation were monitored at 340 nm. The reactions were done in triplicate. The IC50 was calculated in GraphPad Prism.

PfTrxR = target: T2, PfTrxR (Plasmodium falciparum, UniProt Q25861); test: P. falciparum TrxR enzyme inhibition; type: biochemical
T2 construct: 6-His (N); made in house; host or cells: E. coli BL21 (DE3)
T2 sequence (Q25861 1-541): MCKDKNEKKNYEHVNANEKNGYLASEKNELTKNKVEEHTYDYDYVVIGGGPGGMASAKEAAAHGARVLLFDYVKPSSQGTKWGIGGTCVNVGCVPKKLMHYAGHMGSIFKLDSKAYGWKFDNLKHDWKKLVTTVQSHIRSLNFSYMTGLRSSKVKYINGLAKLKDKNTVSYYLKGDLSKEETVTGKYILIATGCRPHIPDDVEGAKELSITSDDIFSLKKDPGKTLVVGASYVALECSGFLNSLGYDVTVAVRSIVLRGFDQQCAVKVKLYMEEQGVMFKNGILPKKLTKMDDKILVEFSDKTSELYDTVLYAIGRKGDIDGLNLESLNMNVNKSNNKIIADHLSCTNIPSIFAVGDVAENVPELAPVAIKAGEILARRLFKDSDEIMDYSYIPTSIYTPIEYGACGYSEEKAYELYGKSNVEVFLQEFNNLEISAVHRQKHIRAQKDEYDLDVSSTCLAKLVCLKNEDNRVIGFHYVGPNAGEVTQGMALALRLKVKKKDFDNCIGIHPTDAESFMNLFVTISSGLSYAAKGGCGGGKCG
Experimental: Recombinant TGR, human TrxR1, B. malayi (Bm)TrxR and human GR proteins were expressed and purified as described[20],[69],[79]. The codon optimized sequence for P. falciparum (PfTrxR, https://www.ncbi.nlm.nih.gov/protein/CAA60574.1/) with an N-terminal 6-His tag was synthesized and inserted into pET15b (GenScript) and expressed in BL21 (DE3) cells and purified as described for human GR[20]. TGR and TrxR enzyme inhibition assays were performed in triplicate at 25 °C as described[20] in 0.1 M potassium phosphate (pH 7.4), 10 mM EDTA, 100 µM NADPH and 0.01% Tween-20. TGR, human TrxR1 and BmTrxR (all at 4 nM) and PfTrxR (50 nM) were preincubated with the compounds for 15 min. The reaction was started with addition of an equal volume of DTNB (6 mM) and NADPH (100 µM) and the increase in A412 during the first 3 min was recorded. […] The reaction was preincubated for 15 min. Activity was initiated with the addition of 1 mM GSSG and 100 μM NADPH and initial rates of NADPH oxidation were monitored at 340 nm. The reactions were done in triplicate. The IC50 was calculated in GraphPad Prism.

TGR [1] = target: T3, TGR (Schistosoma mansoni, UniProt Q962Y6, X597U); test: NADPH consumption (oxidase activity); type: biochemical, S. mansoni
T3 construct: made in house
Experimental: TRi-1, Stattic (both at 50 µM) and AF (20 µM) were incubated with 1 ml of 500 nM TGR and 100 µM NADPH in TGR reaction buffer for 30 min. The samples were desalted using a Zeba spin desalting column (Thermo Fisher Scientific) and 100 µl of the desalted sample was combined with 100 µl of 100 µM NADPH. NADPH consumption was monitored at 340 nm in triplicate. Compounds 1, 4, 6, and 7 (50 µM) were tested in the same fashion without the desalting step and with a first incubation step of 30 min for 6 and 7 and 2 h for 1 and 4.

TGR [2] = target: T3, TGR; test: Superoxide production (pyrogallol red); type: biochemical, S. mansoni; settings: replicates
Experimental: The production of superoxide by TGR was determined by monitoring reaction of superoxide with pyrogallol red[80]. Briefly, a 1 ml reaction mix (500 nM TGR, 100 µM NADPH, and 20–50 µM inhibitor) was incubated at room temperature for 30 min for fast inhibitors, or 2 h for slow inhibitors. For irreversible inhibitor controls TRi-1 (synthesized in house as reported[45]), Stattic (Cayman Chemical), and AF (Cayman Chemical), the samples were desalted using a Zeba spin desalting column. 100 µL of sample was combined with pyrogallol buffer with and without superoxide dismutase (SOD) (50 µM pyrogallol red, 300 µM NADPH; ± 10 units SOD). The reaction was measured at A340 and A540 simultaneously for 2 h.

TGR [3] = target: T4, TGR (Schistosoma mansoni, UniProt Q962Y6); test: Reversibility by jump dilution; type: biochemical
T4 construct: made in house
T4 sequence (Q962Y6 1-598): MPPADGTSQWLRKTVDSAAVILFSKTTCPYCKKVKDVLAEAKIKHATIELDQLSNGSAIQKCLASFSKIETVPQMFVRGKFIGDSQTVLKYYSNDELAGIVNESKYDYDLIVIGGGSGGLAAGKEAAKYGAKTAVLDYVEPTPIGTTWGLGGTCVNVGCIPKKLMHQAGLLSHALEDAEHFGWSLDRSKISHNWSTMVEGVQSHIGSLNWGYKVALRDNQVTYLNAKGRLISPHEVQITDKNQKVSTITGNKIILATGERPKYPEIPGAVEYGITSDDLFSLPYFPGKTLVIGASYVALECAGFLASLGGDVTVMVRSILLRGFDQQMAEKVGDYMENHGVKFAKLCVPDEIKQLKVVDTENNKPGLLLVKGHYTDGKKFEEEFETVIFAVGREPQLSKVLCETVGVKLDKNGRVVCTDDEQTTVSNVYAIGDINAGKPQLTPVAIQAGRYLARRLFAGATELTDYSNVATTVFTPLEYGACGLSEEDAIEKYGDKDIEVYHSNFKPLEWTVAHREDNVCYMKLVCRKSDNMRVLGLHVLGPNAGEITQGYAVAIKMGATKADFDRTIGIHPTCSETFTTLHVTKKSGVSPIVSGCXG
Experimental: A reaction of 370 nM TGR, 100 µM NADPH, and 250 µM inhibitor was incubated for 15 min at room temperature. A 100x dilution of the reaction was made and the activity was determined immediately and after 60 min.

[4] = D0: diluted 1:100, activity determined immediately, list for plotting
[5] = D60: diluted 1:100, activity determined after 60 min, list for plotting

C[C@@H]1[C@H]2C[C@@H](C[C@H]1NC(=O)Cc1nc3ccccc3n1C1CCCCC1)C2(C)C [Compound 10]
Ratio GSH/GSSG (S. mansoni adult worms): 63.3816
inhibition at 1 µM (BmTrxR; BmTrxR, 1 µM compound, mean of 3 replicates): 27.9%
inhibition at 5 µM (BmTrxR; BmTrxR, 5 µM compound, mean of 3 replicates): 68%
inhibition at 15 µM (BmTrxR; BmTrxR, 15 µM compound, mean of 3 replicates): 100%
inhibition at 30 µM (BmTrxR; BmTrxR, 30 µM compound, mean of 3 replicates): 108%
inhibition at 66.7 µM (BmTrxR; BmTrxR, 66.7 µM compound, mean of 3 replicates): 106%
IC50 (BmTrxR; read-out: BmTrxR IC50): 2.5 µM
Human GR (inhibition at 66.7 µM) (Human GR): n.i.
IC50 (PfTrxR): 32.9 ± 4.46 µM
inhibition at 1 µM (PfTrxR): 3.2%
inhibition at 5 µM (PfTrxR): 6.15%
inhibition at 15 µM (PfTrxR): 29.7%
inhibition at 30 µM (PfTrxR): 48.5%
inhibition at 66.7 µM (PfTrxR): 66.9%

O=[N+]([O-])c1ccc2c(c1)S(=O)(=O)C=C2 [Stattic, reference compound]
NADPH consumption by TGR after exposure (TGR [1]): converted TGR to a pro-oxidant enzyme
NADPH consumption (rate/ΔOD340) (TGR [1]; replicates): -0.002179 and -0.002159 and -0.002209
Superoxide production, Pyrogallol red consumption monitored ΔA540 (TGR [2]; condition not given): -0.005958 and -0.005844 and -0.006065
Superoxide production, Pyrogallol red consumption monitored ΔA540 (TGR [2]; second of the two columns per substance (condition not given)): -6.328e-5 and -6.968e-5 and -6.397e-5
reversibility of TGR inhibition (TGR [3]; 250 µM inhibitor, 100-fold jump dilution): irreversible
% Activity (ID list), D0 (TGR [3]; [4]): 1.1% and 0.9% and -0.249%
% Inhibition (ID list), D0 (TGR [3]; [4]): 98.9% and 99.1% and 100.2%
% Activity (ID list), D60 (TGR [3]; [5]): -0.15% and 2.9% and 1.8%
% Inhibition (ID list), D60 (TGR [3]; [5]): 100.1% and 97.1% and 98.2%
% Activity, 0 min (TGR [3]; [0, D0]: 15 min preincubation inhibitor + TGR + NADPH, diluted 1:100, then activity determined immediately, relative to DMSO): 1.12% and 0.8821% and -0.2494%
% Activity, 60 min (TGR [3]; [60, D60]: 15 min preincubation inhibitor + TGR + NADPH, diluted 1:100, then activity determined after 60 min, relative to DMSO): -0.1498% and 2.864% and 1.829%
Inhibitor (rate), -15 (TGR [3]; [-15]: 15 min preincubation inhibitor + TGR + NADPH, then activity determined, raw rate, replicates): 0.0007 and 0.0003 and -0.0004
% Activity, -15 (TGR [3]; [-15]: 15 min preincubation inhibitor + TGR + NADPH, then activity determined, relative to DMSO, replicates): 1.077% and 0.4412% and -0.5874%
% Inhibition (ID list) (TGR [3]; before dilution (-15), list for plotting): 100.5% and 100.0% and 98.7%
